The target in assay [1] is 5-hydroxytryptamine receptor 1B (Rattus norvegicus, UniProt P28564). The format is cell membranes, Wistar, Cerebral cortex, Membrane.
In assay [2] the target is T1, C-X-C chemokine receptor type 1 (Homo sapiens, UniProt P25024).
T1 sequence (P25024 whole entry): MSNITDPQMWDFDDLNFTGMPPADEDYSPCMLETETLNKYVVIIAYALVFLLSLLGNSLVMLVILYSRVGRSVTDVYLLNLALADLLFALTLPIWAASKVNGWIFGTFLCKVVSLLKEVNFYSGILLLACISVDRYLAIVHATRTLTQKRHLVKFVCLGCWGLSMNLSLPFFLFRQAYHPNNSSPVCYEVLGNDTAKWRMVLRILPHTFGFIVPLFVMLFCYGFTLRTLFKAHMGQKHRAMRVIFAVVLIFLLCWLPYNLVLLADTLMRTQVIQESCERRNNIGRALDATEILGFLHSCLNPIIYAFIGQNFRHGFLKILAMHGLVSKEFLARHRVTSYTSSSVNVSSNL

Assay [3] concerns the target T2, C-C chemokine receptor type 4 (Homo sapiens, UniProt P51679).
T2 sequence (P51679 whole entry): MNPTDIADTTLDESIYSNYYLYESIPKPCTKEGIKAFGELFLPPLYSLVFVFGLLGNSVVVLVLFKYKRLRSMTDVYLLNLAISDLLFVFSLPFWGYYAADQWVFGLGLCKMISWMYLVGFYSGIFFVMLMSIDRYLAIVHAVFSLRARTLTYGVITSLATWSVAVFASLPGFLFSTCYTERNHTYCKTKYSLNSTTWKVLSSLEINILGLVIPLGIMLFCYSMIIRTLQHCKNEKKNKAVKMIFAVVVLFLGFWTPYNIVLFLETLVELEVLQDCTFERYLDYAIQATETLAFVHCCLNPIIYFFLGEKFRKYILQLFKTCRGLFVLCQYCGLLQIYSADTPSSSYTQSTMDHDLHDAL
It counts as cell membranes, Chem-1, Membrane. Particulars: chem-1.

The target in assay [4] is T3, Muscarinic acetylcholine receptor M2 (Homo sapiens, UniProt P08172).
T3 sequence (P08172 whole entry): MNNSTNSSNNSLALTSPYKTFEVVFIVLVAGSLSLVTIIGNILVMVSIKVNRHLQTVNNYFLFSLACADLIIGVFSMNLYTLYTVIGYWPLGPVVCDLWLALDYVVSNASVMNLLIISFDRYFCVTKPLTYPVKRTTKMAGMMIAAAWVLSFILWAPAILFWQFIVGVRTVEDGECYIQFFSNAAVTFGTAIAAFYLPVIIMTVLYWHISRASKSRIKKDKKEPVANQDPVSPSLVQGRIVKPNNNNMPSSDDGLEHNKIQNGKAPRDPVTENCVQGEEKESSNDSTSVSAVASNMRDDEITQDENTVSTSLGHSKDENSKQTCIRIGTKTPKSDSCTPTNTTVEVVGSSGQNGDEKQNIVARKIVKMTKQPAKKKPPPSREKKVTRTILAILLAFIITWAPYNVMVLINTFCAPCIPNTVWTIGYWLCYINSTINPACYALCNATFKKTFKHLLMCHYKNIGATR
The format is cell membranes, CHO-K1, Membrane. The note with it: cho-k1.

Assay [5] addresses T4, Adenosine receptor A1 (Homo sapiens, UniProt P30542).
T4 sequence (P30542 whole entry): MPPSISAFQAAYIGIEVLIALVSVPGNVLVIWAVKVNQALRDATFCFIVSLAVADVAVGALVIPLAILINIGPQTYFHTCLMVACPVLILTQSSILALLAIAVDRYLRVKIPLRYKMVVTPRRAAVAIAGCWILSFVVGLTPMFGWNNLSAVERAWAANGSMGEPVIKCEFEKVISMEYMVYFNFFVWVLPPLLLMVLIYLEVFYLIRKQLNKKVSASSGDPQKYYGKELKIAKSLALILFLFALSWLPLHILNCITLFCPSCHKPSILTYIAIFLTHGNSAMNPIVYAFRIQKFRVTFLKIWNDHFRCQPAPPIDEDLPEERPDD
It counts as cell membranes, CHO, Membrane. Particulars: cho.

In assay [6] the target is Receptor tyrosine-protein kinase erbB-2 (Homo sapiens, UniProt P04626). Description: biochemical. It counts as cell-based, Insect cells.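 Further: inhibition of HER2 kinase enzyme activity, measured with Poly(Glu:Tyr) as the phosphorylation substrate.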

The text below walks through data of ChEMBL document CHEMBL1909046, “DrugMatrix in vitro pharmacology data”.

*1 amine or outer side, *2 acyl side, *3 side chain or, on linkers, in order; H or OH if unused. Where a SMILES comes first, the peptide text is derived from it. Bridges are numbered along the chain shown (N, C = ends). Roman numbers before positions name the chains, in order. [ ]: non-standard residue; d: D form. Actinocin(1to9) = Cc1c2oc3c(C)ccc(C(=O)[*:2])c3nc-2c(C(=O)[*:1])c(N)c1=O; NMeV = CN[C@H](C(=O)O)C(C)C; Sar = CNCC(=O)O
Further: in other assays of this panel Not Active means under 50% inhibition at 10 µM.

5-hydroxytryptamine receptor 1B, sequence (P28564 whole entry): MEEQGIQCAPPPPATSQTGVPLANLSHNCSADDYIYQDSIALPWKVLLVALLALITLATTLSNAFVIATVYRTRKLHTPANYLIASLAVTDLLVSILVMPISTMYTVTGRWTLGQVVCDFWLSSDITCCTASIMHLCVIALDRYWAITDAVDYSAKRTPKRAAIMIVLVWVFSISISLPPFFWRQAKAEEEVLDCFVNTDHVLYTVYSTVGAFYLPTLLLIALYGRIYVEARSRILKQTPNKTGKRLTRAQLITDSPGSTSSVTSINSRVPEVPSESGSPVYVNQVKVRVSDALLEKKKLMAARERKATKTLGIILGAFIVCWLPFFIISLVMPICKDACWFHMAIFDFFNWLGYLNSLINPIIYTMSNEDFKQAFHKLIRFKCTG

In general, IC50 refers to the concentration that gives 50% inhibition. In general, Ki refers to a dissociation constant, usually derived from enzyme kinetics or from competition with a known ligand. Regarding `COc1ccc(C[C@H]2NC[C@H](O)[C@H]2OC(C)=O)cc1` [ANISOMYCIN], the IC50 entry in assay [1], in assay [2], in assay [3], in assay [4], in assay [5] and in assay [6] (insect cells) was “Not Active” throughout. Further, the Ki result in assay [1], in assay [2], in assay [3], in assay [4], in assay [5] and in assay [6] (insect cells) was “Not Active” each time.
Take `CNNCc1ccc(C(=O)NC(C)C)cc1` [PROCARBAZINE]: the IC50 result in assay [1], in assay [2], in assay [3], in assay [4], in assay [5] and in assay [6] (insect cells) was “Not Active” in each case.
Regarding `Cc1onc(O)c1CC(N)C(=O)O` (racemic) [(R,S)-AMPA], the IC50 result in assay [1], in assay [2], in assay [3], in assay [4], in assay [5] and in assay [6] (insect cells) was “Not Active” each time.
For `Cc1c(O)c(=O)ccn1C` [DEFERIPRONE], the IC50 entry in assay [1], in assay [2], in assay [3], in assay [4], in assay [5] and in assay [6] (insect cells) was “Not Active” in each case.
Regarding `Nc1ncn([C@@H]2O[C@H](CO)[C@@H](O)[C@H]2O)c(=O)n1` [AZACITIDINE], the IC50 entry in assay [1], in assay [2], in assay [3], in assay [4], in assay [5] and in assay [6] (insect cells) was “Not Active” throughout.
As for `CCn1cc(C(=O)O)c(=O)c2cc(F)c(N3CCNCC3)cc21` [NORFLOXACIN], the IC50 result in assay [1], in assay [2], in assay [3], in assay [4], in assay [5] and in assay [6] (insect cells) was “Not Active” each time.
As for `CN(C)CCCN1c2ccccc2Sc2ccc(Cl)cc21` [CHLORPROMAZINE], the 50% inhibitory concentration (IC50) in assay [1] (read-out: IC50) was 4040 nM; in assay [2], “Not Active”; in assay [3], “Not Active”; in assay [5] it was “Not Active”; in assay [6] (read-out: IC50) it was 19400 nM. Further, the inhibition constant (Ki) in assay [1] (read-out: Ki) turned out to be 1840 nM.
Turning to `CCOC(=O)C1=C(COCCN)NC(C)=C(C(=O)OC)C1c1ccccc1Cl` (centres undefined) [AMLODIPINE], the 50% inhibitory concentration (IC50) entry in assay [1], in assay [2], in assay [3], in assay [4], in assay [5] and in assay [6] (insect cells) was “Not Active” in each case.
In the case of `CC1Cc2ccccc2N1NC(=O)c1ccc(Cl)c(S(N)(=O)=O)c1` (centres undefined) [INDAPAMIDE], the IC50 entry in assay [1], in assay [2], in assay [3], in assay [4], in assay [5] and in assay [6] (insect cells) was “Not Active” throughout.
For the molecule LEAD (II) ACETATE, the IC50 result in assay [1], in assay [2], in assay [3], in assay [4], in assay [5] and in assay [6] (insect cells) was “Not Active” throughout. Besides, the Ki entry in assay [1], in assay [2], in assay [3], in assay [4], in assay [5] and in assay [6] (insect cells) was “Not Active” each time.
As to `Cc1c2oc3c(C)ccc(C(=O)N[C@@H]4C(=O)N[C@H](C(C)C)C(=O)N5CCC[C@H]5C(=O)N(C)CC(=O)N(C)[C@@H](C(C)C)C(=O)O[C@@H]4C)c3nc-2c(C(=O)N[C@@H]2C(=O)N[C@H](C(C)C)C(=O)N3CCC[C@H]3C(=O)N(C)CC(=O)N(C)[C@@H](C(C)C)C(=O)O[C@@H]2C)c(N)c1=O` [DACTINOMYCIN] (I: T[dV]P[Sar][NMeV] / II: T[dV]P[Sar][NMeV]; ester I:1-I:C, II:1-II:C; linker I:N-II:N via Actinocin(1to9)), the IC50 result in assay [1], in assay [2], in assay [3], in assay [4], in assay [5] and in assay [6] (insect cells) was “Not Active” in each case.
For `NCCCCCC(=O)O` [AMINOCAPROIC ACID], the IC50 result in assay [1], in assay [2], in assay [3], in assay [4], in assay [5] and in assay [6] (insect cells) was “Not Active” in each case.
As to `c1ccc(Nc2ccc(Nc3ccccc3)cc2)cc1`, the IC50 result in assay [1], in assay [2], in assay [3], in assay [4], in assay [5] and in assay [6] (insect cells) was “Not Active” throughout.
On to `NC(=O)N1c2ccccc2CCc2ccccc21`, for which the IC50 entry in assay [1], in assay [2], in assay [3], in assay [4], in assay [5] and in assay [6] (insect cells) was “Not Active” in each case.
In the case of `Cc1ccc(-c2cc(C(F)(F)F)nn2-c2ccc(S(N)(=O)=O)cc2)cc1` [CELECOXIB], the IC50 entry in assay [1], in assay [2], in assay [3], in assay [4], in assay [5] and in assay [6] (insect cells) was “Not Active” each time.
On to `Cc1onc(-c2ccccc2Cl)c1C(=O)N[C@@H]1C(=O)N2[C@@H]1SC(C)(C)[C@@H]2C(=O)O` [CLOXACILLIN], for which the IC50 result in assay [1], in assay [2], in assay [3], in assay [4], in assay [5] and in assay [6] (insect cells) was “Not Active” throughout.
On to `CCCN1C[C@H](CSC)C[C@@H]2c3cccc4[nH]cc(c34)C[C@H]21` [PERGOLIDE], for which the IC50 in assay [1] (read-out: IC50) is 87 nM; in assay [2], “Not Active”; in assay [3], “Not Active”; in assay [4] it was “Not Active”; in assay [5] it was “Not Active”; in assay [6] (insect cells), “Not Active”. In addition, the Ki in assay [1] (read-out: Ki) was 40 nM.
As to LIPOPOLYSACCHARIDE E. COLI O55:B5, the IC50 entry in assay [1] is “Not Active”; in assay [2], “Not Active”; in assay [3], “Not Active”; in assay [4] it was “Not Active”; in assay [5], “Not Active”; in assay [6] (insect cells, read-out: IC50), 449 nM. Moreover, the Ki entry in assay [1], in assay [2], in assay [3], in assay [4] and in assay [5] was “Not Active” each time.
On to `CC(O)CO` (centres undefined) [PROPYLENE GLYCOL], for which the IC50 result in assay [1], in assay [2], in assay [3], in assay [4], in assay [5] and in assay [6] (insect cells) was “Not Active” each time.
For the molecule `CC(C)C(Br)C(=O)NC(N)=O` (centres undefined) [BROMISOVALUM], the IC50 result in assay [1], in assay [2], in assay [3], in assay [4], in assay [5] and in assay [6] (insect cells) was “Not Active” in each case.
In the case of `CCC(C)n1ncn(-c2ccc(N3CCN(c4ccc(OCC5COC(Cn6cncn6)(c6ccc(Cl)cc6Cl)O5)cc4)CC3)cc2)c1=O` (centres undefined) [ITRACONAZOLE], the IC50 result in assay [1], in assay [2], in assay [3], in assay [4], in assay [5] and in assay [6] (insect cells) was “Not Active” in each case.
